Measurements reported in publication PMC3382171 (PLoS ONE, 2012).

Experiments:
Experiment in all cases: biochemical
Conditions in all cases: read-out: Upstate KSS % inhibition at 1uM
CDK2/CyclinA = CDK2/CyclinA (Homo sapiens, UniProt P24941)
Method: (§1) In these selectivity assays the concentration of ATP was set to the Km value of ATP for each kinase tested to allow for a relative potency comparison between the various kinases. The compounds were tested at 1 µM final concentration. […] (A) Kinase selectivity screen (KSS) performed at Upstate Biotechnology. […] (B) KSS performed at University of Dundee (Division of Signal Transduction Therapy). […] (PDF) Click here for additional data file.

PKD2 = target: T1, PKD2 (Homo sapiens, UniProt Q9BZL6)
T1 construct: gene PRKD2
Method: as §1

MAPK2 = target: T2, MAPK2 (Homo sapiens, UniProt P28482)
T2 construct: gene MAPK1
Method: as §1

PKCtheta = target: T3, PKCtheta (Homo sapiens, UniProt Q04759)
T3 construct: gene PRKCQ
Method: as §1

DDR2 = DDR2 (Homo sapiens, UniProt Q16832)
Method: as §1

PRK2 = target: T4, PRK2 (Homo sapiens, UniProt Q16513)
T4 construct: gene PKN2
Method: as §1

rat CK1delta = target: T5, rat CK1delta (Rattus norvegicus, UniProt Q06486)
T5 construct: gene Csnk1d
Method: as §1

JNK2alpha2 = target: T6, JNK2alpha2 (Homo sapiens, UniProt P45984)
T6 construct: gene MAPK9; isoform alpha2
Method: as §1

CDK3/cyclinE = CDK3/cyclinE (Homo sapiens, UniProt Q00526)
Method: as §1

PKCdelta = target: T7, PKCdelta (Homo sapiens, UniProt Q05655)
T7 construct: gene PRKCD
Method: as §1

NEK6 = NEK6 (Homo sapiens, UniProt Q9HC98)
Method: as §1

ASK1 = target: T8, ASK1 (Homo sapiens, UniProt Q99683)
T8 construct: gene MAP3K5
Method: as §1

RET = RET (Homo sapiens, UniProt P07949)
Method: as §1

TAK1 = target: T9, TAK1 (Homo sapiens, UniProt O43318)
T9 construct: gene MAP3K7
Method: as §1

GSK3alpha = target: T10, GSK3alpha (Homo sapiens, UniProt P49840)
T10 construct: gene GSK3A
Method: as §1

FGR = FGR (Homo sapiens, UniProt P09769)
Method: as §1

BTK = BTK (Homo sapiens, UniProt Q06187)
Method: as §1

mouse MKK4 = target: T11, mouse MKK4 (Mus musculus, UniProt P47809)
T11 construct: gene Map2k4
Method: as §1

ZIPK = target: T12, ZIPK (Homo sapiens, UniProt O43293)
T12 construct: gene DAPK3
Method: as §1

EPHB2 = EPHB2 (Homo sapiens, UniProt P29323)
Method: as §1

CDK7/cyclinH = CDK7/cyclinH (Homo sapiens, UniProt P50613)
Method: as §1

FGFR3 = FGFR3 (Homo sapiens, UniProt P22607)
Method: as §1

Aurora-A = target: T13, Aurora-A (Homo sapiens, UniProt O14965)
T13 construct: gene AURKA
Method: as §1

PASK = PASK (Homo sapiens, UniProt Q96RG2)
Method: as §1

Rsk3 = target: T14, Rsk3 (Homo sapiens, UniProt Q15349)
T14 construct: gene RPS6KA2
Method: as §1

PhKgamma = target: T15, PhKgamma (Homo sapiens, UniProt Q16816)
T15 construct: gene PHKG1
Method: as §1

c-RAF = target: T16, c-RAF (Homo sapiens, UniProt P04049)
T16 construct: gene RAF1
Method: as §1

GRK3 = GRK3 (Homo sapiens, UniProt P35626)
Method: as §1

PAK4 = PAK4 (Homo sapiens, UniProt O96013)
Method: as §1

CHK2 = target: T17, CHK2 (Homo sapiens, UniProt O96017)
T17 construct: gene CHEK2
Method: as §1

JNK1alpha1 = target: T18, JNK1alpha1 (Homo sapiens, UniProt P45983)
T18 construct: gene MAPK8; isoform alpha1
Method: as §1

IR = target: T19, IR (Homo sapiens, UniProt P06213)
T19 construct: gene INSR
Method: as §1

CAMKIIbeta = target: T20, CAMKIIbeta (Homo sapiens, UniProt Q13554)
T20 construct: gene CAMK2B
Method: as §1

SAPK4 = target: T21, SAPK4 (Homo sapiens, UniProt O15264)
T21 construct: gene MAPK13
Method: as §1

FGR, sequence (P09769 whole entry): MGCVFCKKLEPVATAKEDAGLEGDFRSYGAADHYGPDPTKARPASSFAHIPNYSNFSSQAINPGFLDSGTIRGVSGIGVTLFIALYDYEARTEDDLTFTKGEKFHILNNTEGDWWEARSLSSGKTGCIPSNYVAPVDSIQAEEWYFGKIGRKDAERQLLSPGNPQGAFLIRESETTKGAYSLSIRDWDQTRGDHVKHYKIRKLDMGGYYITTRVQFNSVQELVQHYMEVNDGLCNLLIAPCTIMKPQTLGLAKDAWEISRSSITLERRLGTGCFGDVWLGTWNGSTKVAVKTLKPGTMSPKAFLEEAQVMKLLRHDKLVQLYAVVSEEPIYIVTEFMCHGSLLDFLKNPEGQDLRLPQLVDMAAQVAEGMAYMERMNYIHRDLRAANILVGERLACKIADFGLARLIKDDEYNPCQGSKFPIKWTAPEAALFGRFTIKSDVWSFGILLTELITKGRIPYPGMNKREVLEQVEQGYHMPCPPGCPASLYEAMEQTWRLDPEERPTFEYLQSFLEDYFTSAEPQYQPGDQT
T20 sequence (Q13554 whole entry): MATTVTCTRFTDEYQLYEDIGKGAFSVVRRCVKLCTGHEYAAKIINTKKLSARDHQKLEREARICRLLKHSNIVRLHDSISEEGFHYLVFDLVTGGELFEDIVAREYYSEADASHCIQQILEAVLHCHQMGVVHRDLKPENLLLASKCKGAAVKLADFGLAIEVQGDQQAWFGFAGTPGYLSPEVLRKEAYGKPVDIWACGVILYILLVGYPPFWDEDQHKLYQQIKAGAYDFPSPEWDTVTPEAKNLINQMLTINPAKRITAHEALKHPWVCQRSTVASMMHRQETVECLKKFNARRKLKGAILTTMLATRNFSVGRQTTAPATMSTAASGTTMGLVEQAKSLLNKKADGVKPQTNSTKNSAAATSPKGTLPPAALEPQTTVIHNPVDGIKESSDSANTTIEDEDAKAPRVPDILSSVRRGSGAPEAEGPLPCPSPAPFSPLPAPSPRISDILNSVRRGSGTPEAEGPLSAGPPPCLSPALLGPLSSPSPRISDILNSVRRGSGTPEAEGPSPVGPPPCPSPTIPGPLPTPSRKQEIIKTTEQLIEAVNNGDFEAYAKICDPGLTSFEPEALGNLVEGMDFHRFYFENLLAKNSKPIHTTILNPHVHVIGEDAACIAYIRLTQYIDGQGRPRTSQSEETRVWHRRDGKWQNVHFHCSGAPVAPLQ
T11 sequence (P47809 whole entry): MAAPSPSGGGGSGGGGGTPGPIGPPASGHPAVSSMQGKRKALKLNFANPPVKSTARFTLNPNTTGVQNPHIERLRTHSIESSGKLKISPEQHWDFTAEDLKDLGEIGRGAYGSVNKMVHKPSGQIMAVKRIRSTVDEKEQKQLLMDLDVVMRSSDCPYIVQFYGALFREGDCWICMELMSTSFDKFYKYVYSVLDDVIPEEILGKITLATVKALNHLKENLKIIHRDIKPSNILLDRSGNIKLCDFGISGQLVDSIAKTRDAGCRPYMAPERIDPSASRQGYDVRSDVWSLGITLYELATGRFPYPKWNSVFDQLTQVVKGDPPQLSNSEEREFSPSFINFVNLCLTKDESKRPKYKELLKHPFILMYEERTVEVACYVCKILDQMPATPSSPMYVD
EPHB2, sequence (P29323 whole entry): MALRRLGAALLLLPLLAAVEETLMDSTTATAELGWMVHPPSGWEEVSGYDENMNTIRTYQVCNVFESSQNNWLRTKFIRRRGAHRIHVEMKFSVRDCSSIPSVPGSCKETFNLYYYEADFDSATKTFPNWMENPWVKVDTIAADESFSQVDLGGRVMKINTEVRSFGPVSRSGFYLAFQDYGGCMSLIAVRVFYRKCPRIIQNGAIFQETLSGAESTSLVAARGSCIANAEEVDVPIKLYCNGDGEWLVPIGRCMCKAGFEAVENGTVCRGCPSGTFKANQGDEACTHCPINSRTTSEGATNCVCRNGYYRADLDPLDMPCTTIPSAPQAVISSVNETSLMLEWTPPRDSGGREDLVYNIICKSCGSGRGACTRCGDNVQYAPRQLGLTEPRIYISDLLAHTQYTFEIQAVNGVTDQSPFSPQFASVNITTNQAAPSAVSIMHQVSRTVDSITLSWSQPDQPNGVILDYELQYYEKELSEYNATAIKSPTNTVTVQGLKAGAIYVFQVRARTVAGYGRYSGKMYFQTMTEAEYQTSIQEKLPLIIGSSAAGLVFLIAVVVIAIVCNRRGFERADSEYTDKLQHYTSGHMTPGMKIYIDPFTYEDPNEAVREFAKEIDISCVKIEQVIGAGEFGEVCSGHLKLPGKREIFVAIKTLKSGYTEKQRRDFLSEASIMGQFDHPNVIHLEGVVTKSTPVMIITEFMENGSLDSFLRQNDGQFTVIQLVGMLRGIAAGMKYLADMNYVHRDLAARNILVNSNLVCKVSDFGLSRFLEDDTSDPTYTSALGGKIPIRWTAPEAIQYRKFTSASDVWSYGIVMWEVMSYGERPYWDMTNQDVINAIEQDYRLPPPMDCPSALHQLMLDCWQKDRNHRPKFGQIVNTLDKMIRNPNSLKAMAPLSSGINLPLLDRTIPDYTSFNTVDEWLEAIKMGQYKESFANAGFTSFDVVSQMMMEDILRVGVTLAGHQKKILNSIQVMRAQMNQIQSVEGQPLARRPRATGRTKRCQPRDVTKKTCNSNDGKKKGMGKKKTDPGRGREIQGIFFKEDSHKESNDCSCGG
RET, sequence (P07949 whole entry): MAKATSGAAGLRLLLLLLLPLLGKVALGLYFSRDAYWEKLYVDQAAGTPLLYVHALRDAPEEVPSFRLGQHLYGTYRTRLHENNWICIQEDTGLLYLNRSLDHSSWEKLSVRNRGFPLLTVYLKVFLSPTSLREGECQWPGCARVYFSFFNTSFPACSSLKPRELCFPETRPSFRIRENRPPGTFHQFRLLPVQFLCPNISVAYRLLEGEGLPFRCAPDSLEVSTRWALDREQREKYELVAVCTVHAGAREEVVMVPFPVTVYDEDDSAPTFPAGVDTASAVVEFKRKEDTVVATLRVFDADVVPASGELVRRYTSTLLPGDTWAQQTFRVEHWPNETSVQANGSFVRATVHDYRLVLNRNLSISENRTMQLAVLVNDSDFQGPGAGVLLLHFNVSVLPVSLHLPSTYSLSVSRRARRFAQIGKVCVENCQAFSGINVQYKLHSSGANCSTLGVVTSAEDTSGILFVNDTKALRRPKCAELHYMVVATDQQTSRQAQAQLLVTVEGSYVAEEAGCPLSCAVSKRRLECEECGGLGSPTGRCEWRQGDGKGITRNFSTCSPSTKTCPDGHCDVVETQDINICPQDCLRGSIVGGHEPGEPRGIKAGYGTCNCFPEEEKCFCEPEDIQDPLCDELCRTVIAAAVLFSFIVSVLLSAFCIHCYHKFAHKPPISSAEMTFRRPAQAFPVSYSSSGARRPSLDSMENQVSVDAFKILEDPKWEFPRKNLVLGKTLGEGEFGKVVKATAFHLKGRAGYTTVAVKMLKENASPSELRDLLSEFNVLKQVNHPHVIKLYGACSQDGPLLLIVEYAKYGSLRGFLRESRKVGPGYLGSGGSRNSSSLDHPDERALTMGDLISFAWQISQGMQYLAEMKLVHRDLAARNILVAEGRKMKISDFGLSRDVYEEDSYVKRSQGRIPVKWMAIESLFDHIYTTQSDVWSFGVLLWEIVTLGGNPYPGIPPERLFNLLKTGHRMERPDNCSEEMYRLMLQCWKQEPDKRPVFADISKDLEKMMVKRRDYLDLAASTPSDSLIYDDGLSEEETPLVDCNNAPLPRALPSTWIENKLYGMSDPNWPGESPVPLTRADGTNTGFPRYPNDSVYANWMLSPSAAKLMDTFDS
T16 sequence (P04049 whole entry): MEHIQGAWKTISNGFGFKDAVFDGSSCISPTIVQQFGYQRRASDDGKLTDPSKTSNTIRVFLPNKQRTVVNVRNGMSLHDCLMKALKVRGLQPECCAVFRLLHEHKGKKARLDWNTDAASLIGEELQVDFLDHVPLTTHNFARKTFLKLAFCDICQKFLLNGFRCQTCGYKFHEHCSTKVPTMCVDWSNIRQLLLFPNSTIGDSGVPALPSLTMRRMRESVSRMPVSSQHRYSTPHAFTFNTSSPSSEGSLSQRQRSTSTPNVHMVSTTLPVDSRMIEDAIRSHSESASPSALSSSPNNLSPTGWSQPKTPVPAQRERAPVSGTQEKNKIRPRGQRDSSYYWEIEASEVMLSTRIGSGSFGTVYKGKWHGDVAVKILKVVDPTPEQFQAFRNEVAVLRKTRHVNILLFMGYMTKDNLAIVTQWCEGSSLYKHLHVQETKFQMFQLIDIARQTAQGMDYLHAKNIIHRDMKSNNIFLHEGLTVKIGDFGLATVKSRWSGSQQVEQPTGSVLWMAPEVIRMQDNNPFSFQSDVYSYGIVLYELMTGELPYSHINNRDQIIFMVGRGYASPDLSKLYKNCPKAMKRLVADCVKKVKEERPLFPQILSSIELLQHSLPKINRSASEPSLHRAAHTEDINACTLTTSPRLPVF
T17 sequence (O96017 whole entry): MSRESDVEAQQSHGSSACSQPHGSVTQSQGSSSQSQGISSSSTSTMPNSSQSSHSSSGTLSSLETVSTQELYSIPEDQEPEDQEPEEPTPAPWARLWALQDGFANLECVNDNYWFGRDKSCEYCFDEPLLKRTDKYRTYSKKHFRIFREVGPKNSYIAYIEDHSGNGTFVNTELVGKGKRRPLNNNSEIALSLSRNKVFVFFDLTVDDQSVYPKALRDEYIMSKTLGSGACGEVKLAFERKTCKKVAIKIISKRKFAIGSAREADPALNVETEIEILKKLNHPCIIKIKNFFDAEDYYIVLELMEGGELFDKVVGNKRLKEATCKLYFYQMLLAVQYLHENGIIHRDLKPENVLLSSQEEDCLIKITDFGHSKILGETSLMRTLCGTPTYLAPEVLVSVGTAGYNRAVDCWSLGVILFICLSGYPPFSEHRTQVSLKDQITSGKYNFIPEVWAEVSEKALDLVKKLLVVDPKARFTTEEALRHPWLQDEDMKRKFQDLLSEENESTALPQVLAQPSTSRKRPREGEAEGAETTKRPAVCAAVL

inhibition at 1 µM (CDK2/CyclinA): 0%
inhibition at 1 µM (PKD2): 5%
inhibition at 1 µM (MAPK2): -7%
inhibition at 1 µM (PKCtheta): -10%
inhibition at 1 µM (DDR2): 0%
inhibition at 1 µM (PRK2): -11%
inhibition at 1 µM (rat CK1delta): -4%
inhibition at 1 µM (JNK2alpha2): -2%
inhibition at 1 µM (CDK3/cyclinE): 5%
inhibition at 1 µM (PKCdelta): 10%
inhibition at 1 µM (NEK6): -14%
inhibition at 1 µM (ASK1): -11%
inhibition at 1 µM (RET): -7%
inhibition at 1 µM (TAK1): -7%
inhibition at 1 µM (GSK3alpha): -7%
inhibition at 1 µM (FGR): 0%
inhibition at 1 µM (BTK): -13%
inhibition at 1 µM (mouse MKK4): -2%
inhibition at 1 µM (ZIPK): 0%
inhibition at 1 µM (EPHB2): 53%
inhibition at 1 µM (CDK7/cyclinH): -14%
inhibition at 1 µM (FGFR3): -1%
inhibition at 1 µM (Aurora-A): -7%
inhibition at 1 µM (PASK): -13%
inhibition at 1 µM (Rsk3): -3%
inhibition at 1 µM (PhKgamma): -3%
inhibition at 1 µM (c-RAF): -16%
inhibition at 1 µM (GRK3): -1%
inhibition at 1 µM (PAK4): 1%
inhibition at 1 µM (CHK2): 0%
inhibition at 1 µM (JNK1alpha1): 0%
inhibition at 1 µM (IR): 8%
inhibition at 1 µM (CAMKIIbeta): -6%
inhibition at 1 µM (SAPK4): -18%
Structure (SMILES): OCCn1cc(-c2cnc3nnn(Cc4ccc5ncccc5c4)c3n2)cn1 [METi, PF-04217903]
